In ChEMBL document CHEMBL4613255, “Tridiscorhabdin and Didiscorhabdin, the First Discorhabdin Oligomers Linked with a Direct C-N Bridge from the Sponge Latrunculia biformis Collected from the Deep Sea in Antarctica” (J Nat Prod, 2020):

Columns and labels:
HCT-116 = test: Cytotoxicity against human HCT116 cells assessed as reduction in cell viability after 24 hrs by fluorescence based assay; assay type: functional; conditions: HCT-116, 24 h
HaCaT = test: Cytotoxicity against human HaCaT cells assessed as reduction in cell viability after 24 hrs by fluorescence based assay

Structure (SMILES) | IC50 (HCT-116) | IC50 (HaCaT)
O=C1C=C(S[C@@H]2[C@H]3C(=O)C=C4S[C@H]5C[C@@]42C2=C(N5)C(=O)c4[nH]cc5c4C2=[N+]3CC5)[C@@]2(C=CNC3=C2c2nccc4cn([C@H]5[C@H]6C(=O)C=C7S[C@H]8C[C@]75C5=C(N8)C(=O)c7[nH]cc8c7C5=[N+]6CC8)c(c24)C3=O)C=C1Br | 310 nM | 920 nM
O=C1C2=C3C4=[N+](CCc5c[nH]c1c54)[C@@H]1C(=O)C=C4S[C@H](C[C@]43[C@H]1O)N2 | 940 nM | –
